Reference: patent publication US20100227859A1, “TRICYCLIC COMPOUNDS AS MATRIX METALLOPROTEINASE INHIBITORS” (priority 2007, published 2010)

Target: purified human MMP-12 enzyme (Homo sapiens, UniProt P39900)
Assay: MMP-12 FRET assay
Format: biochemical
Details: substrate 20 μM, room temperature
In short: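 Enzyme pre-incubated 30 min at room temperature with compound in 50 mM HEPES pH 7.4, 100 mM NaCl, 5 mM CaCl2, 0.005% Brij-35, 10% DMSO final. Reaction started with 20 μM MCA-Pro-Leu-Gly-Leu-Dpa(DNP)-Ala-Arg, and initial cleavage rate read over 30 min (λex 325, λem 395 nm). IC50 from slope-factor inhibition fit.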

Sequence of purified human MMP-12 enzyme (P39900 106-470): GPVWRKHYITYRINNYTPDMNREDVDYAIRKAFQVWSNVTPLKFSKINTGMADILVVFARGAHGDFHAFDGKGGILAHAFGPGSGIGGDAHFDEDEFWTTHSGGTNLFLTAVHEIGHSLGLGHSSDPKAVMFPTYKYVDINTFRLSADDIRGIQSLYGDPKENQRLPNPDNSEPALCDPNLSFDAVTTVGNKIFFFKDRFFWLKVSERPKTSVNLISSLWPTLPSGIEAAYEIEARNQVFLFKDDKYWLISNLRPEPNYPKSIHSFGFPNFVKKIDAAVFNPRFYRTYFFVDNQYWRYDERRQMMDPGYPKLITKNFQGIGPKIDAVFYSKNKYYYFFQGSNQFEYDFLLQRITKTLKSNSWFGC

IC50 [nM] | SMILES
2 | CONC(=N)c1ccc2oc3cc(S(=O)(=O)N[C@H](C(=O)O)C(C)C)ccc3c2c1 [Compound 108, (S)-2-(8-(N-methoxycarbamimidoyl)dibenzo[b,d]furan-3-sulfonamido)-3-methylbutanoic acid]
640 | CCN=C(NCC)c1ccc2oc3cc(S(=O)(=O)N[C@H](C(=O)O)C(C)C)ccc3c2c1 [Compound 109, (S)-2-(8-(N,N′-diethylcarbamimidoyl)dibenzo[b,d]furan-3-sulfonamido)-3-methylbutanoic acid]
425 | CC(C)[C@H](NS(=O)(=O)c1ccc2c(c1)oc1ccc(C(=N)N(C)C(C)C)cc12)C(=O)O [Compound 110, (S)-2-(8-(N-isopropyl-N-methylcarbamimidoyl)dibenzo[b,d]furan-3-sulfonamido)-3-methylbutanoic acid]
< 1.5 | CC(C)[C@H](NS(=O)(=O)c1ccc2c(c1)oc1ccc(-c3ccc(C(N)=O)s3)cc12)C(=O)O [Compound 111, (S)-2-(8-(5-carbamoylthiophen-2-yl)dibenzo[b,d]furan-3-sulfonamido)-3-methylbutanoic acid]
52 | CC(C)[C@H](NS(=O)(=O)c1ccc2c(c1)oc1ccc(-c3ccc(C(=O)O)s3)cc12)C(=O)O [Compound 112, (S)-5-(7-(N-(1-carboxy-2-methylpropyl)sulfamoyl)dibenzo[b,d]furan-2-yl)thiophene-2-carboxylic acid]
290 | COc1ncc(-c2ccc3c(c2)oc2ccc(S(=O)(=O)N[C@@H](C(=O)O)C(C)C)cc23)c(OC)n1 [Compound 115, (R)-2-(7-(2,4-dimethoxypyrimidin-5-yl)dibenzo[b,d]furan-2-sulfonamido)-3-methylbutanoic acid]
3.1 | CC(C)[C@@H](NS(=O)(=O)c1ccc2oc3cc(-c4ccc[nH]4)ccc3c2c1)C(=O)O [Compound 116, (R)-2-(7-(1H-pyrrol-2-yl)dibenzo[b,d]furan-2-sulfonamido)-3-methylbutanoic acid]
2.8 | CC(C)[C@@H](NS(=O)(=O)c1ccc2oc3cc(-c4cnn(C)c4)ccc3c2c1)C(=O)O [Compound 117, (R)-3-methyl-2-(7-(1-methyl-1H-pyrazol-4-yl)dibenzo[b,d]furan-2-sulfonamido)butanoic acid]
0.6 | CC(C)[C@@H](NS(=O)(=O)c1ccc2oc3cc(-c4cccs4)ccc3c2c1)C(=O)O [Compound 118, (R)-3-methyl-2-(7-(thiophen-2-yl)dibenzo[b,d]furan-2-sulfonamido)butanoic acid]
8.3 | CC(C)[C@@H](NS(=O)(=O)c1ccc2oc3cc(-c4cc5ccccc5o4)ccc3c2c1)C(=O)O [Compound 119, (R)-2-(7-(benzofuran-2-yl)dibenzo[b,d]furan-2-sulfonamido)-3-methylbutanoic acid]
2.2 | CC(C)[C@@H](NS(=O)(=O)c1ccc2oc3cc(-c4ccc(C(F)(F)F)cc4)ccc3c2c1)C(=O)O [Compound 120, (R)-3-methyl-2-(7-(4-(trifluoromethyl)phenyl)dibenzo[b,d]furan-2-sulfonamido)butanoic acid]
140 | CC(C)[C@@H](NS(=O)(=O)c1ccc2oc3cc(-c4cc5ccccc5n4C)ccc3c2c1)C(=O)O [Compound 121, (R)-3-methyl-2-(7-(1-methyl-1H-indol-2-yl)dibenzo[b,d]furan-2-sulfonamido)butanoic acid]
6.9 | CC(C)[C@@H](NS(=O)(=O)c1ccc2oc3cc(-c4cc5cc(F)ccc5[nH]4)ccc3c2c1)C(=O)O [Compound 122, (R)-2-(7-(5-fluoro-1H-indol-2-yl)dibenzo[b,d]furan-2-sulfonamido)-3-methylbutanoic acid]
< 1.5 | CC(C)[C@H](NS(=O)(=O)c1ccc2c(c1)oc1ccc(-c3ccc(F)s3)cc12)C(=O)O [Compound 124, (S)-2-(8-(5-fluorothiophen-2-yl)dibenzo[b,d]furan-3-sulfonamido)-3-methylbutanoic acid]
17 | CC(C)[C@H](NS(=O)(=O)c1ccc2c(c1)oc1ccc(-c3ccc4oc5cc(S(=O)(=O)N[C@H](C(=O)O)C(C)C)ccc5c4c3)cc12)C(=O)O [Compound 125]
< 1.5 | CC(C)[C@H](NS(=O)(=O)c1ccc2c(c1)oc1ccc(-c3nc(C(F)(F)F)cs3)cc12)C(=O)O [Compound 126, (S)-3-methyl-2-(8-(4-(trifluoromethyl)thiazol-2-yl)dibenzo[b,d]furan-3-sulfonamido)butanoic acid]
175 | CC(C)[C@H](NS(=O)(=O)c1ccc2c(c1)oc1ccc(C(=N)N3CCCC3)cc12)C(=O)O [Compound 127, (S)-2-(8-(imino(pyrrolidin-1-yl)methyl)dibenzo[b,d]furan-3-sulfonamido)-3-methylbutanoic acid]
73 | CCNC(=N)c1ccc2oc3cc(S(=O)(=O)N[C@H](C(=O)O)C(C)C)ccc3c2c1 [Compound 128, (S)-2-(8-(N-ethylcarbamimidoyl)dibenzo[b,d]furan-3-sulfonamido)-3-methylbutanoic acid]
< 1.5 | CC(C)[C@@H](NS(=O)(=O)c1ccc2c(c1)sc1cc(-c3ccco3)ccc12)C(=O)O [Compound 129, (R)-2-(7-(furan-2-yl)dibenzo[b,d]thiophene-3-sulfonamido)-3-methylbutanoic acid]
1900 | CC(C)[C@H](NS(=O)(=O)c1ccc2c(c1)oc1ccc(-c3nn[nH]n3)cc12)C(=O)O [Compound 130, (S)-2-(8-(2H-tetrazol-5-yl)dibenzo[b,d]furan-3-sulfonamido)-3-methylbutanoic acid]
< 1.5 | CC(C)[C@H](NS(=O)(=O)c1ccc2c(c1)oc1ccc(-c3ccc(C(F)(F)F)s3)cc12)C(=O)O [Compound 131, (S)-3-methyl-2-(8-(5-(trifluoromethyl)thiophen-2-yl)dibenzo[b,d]furan-3-sulfonamido)butanoic acid]
2 | CC(C)[C@H](NS(=O)(=O)c1ccc2c(c1)oc1ccc(-c3nnn(C)n3)cc12)C(=O)O [Compound 132, (S)-3-methyl-2-(8-(2-methyl-2H-tetrazol-5-yl)dibenzo[b,d]furan-3-sulfonamido)butanoic acid]
8 | CC(C)[C@@H](NS(=O)(=O)c1ccc2oc3cc(-c4noc(C(C)(C)C)n4)ccc3c2c1)C(=O)O [Compound 133, (R)-2-(7-(5-tert-butyl-1,2,4-oxadiazol-3-yl)dibenzo[b,d]furan-2-sulfonamido)-3-methylbutanoic acid]
2.5 | CC(C)[C@H](NS(=O)(=O)c1ccc2c(c1)oc1ccc(-c3oc(Cl)cc3Cl)cc12)C(=O)O [Compound 134, (S)-2-(8-(3,5-dichlorofuran-2-yl)dibenzo[b,d]furan-3-sulfonamido)-3-methylbutanoic acid]
< 1.5 | Cc1ccc(-c2ccc3c(c2)oc2cc(S(=O)(=O)N[C@H](C(=O)O)C(C)C)ccc23)o1 [Compound 135, (S)-3-methyl-2-(7-(5-methylfuran-2-yl)dibenzo[b,d]furan-3-sulfonamido)butanoic acid]
< 1.5 | CC(C)[C@H](NS(=O)(=O)c1ccc2c(c1)oc1cc(-c3cc4ccccc4s3)ccc12)C(=O)O [Compound 136, (S)-2-(7-(benzo[b]thiophen-2-yl)dibenzo[b,d]furan-3-sulfonamido)-3-methylbutanoic acid]
11 | CC(C)[C@H](NS(=O)(=O)c1ccc2c(c1)oc1cc(-c3nccs3)ccc12)C(=O)O [Compound 137, (S)-3-methyl-2-(7-(thiazol-2-yl)dibenzo[b,d]furan-3-sulfonamido)butanoic acid]
